The text below walks through data of patent publication US20130131111A1, “NMN MODULATORS FOR THE TREATMENT OF NEURODEGENERATIVE DISORDERS” (Babraham Institute, priority 2010, published 2013).

Assay type in all cases: cell-based, mouse
For data set [1], the system named is neurites of SCG neurons. As to the kind of experiment: Vincristine-treated neurites of SCG explant cultures. The method, then: (§1) Explants were placed into L15 (Leibovitz) medium (Invitrogen), cleaned from other tissues, cut in half and six half explants were placed in the centre of 3.5 cm tissue culture dishes pre-coated with poly-L-lysine (20 μg/ml for 2 h; Sigma) and laminin (20 μg/ml for 2 h; Sigma). Explants were cultured in DMEM containing 4500 mg/L glucose and 110 mg/L sodium pyruvate (Sigma), 2 mM glutamine, 1% penicillin/streptomycin, 1/50 B27 serum supplement and 100 ng/ml 7S NGF (all from Invitrogen) and 4 μM aphidicolin (Sigma) to block proliferation of non-neuronal cells. Neurites were allowed to extend for 7 days in all cultures before any treatment. After this time, neurites were separated from their cell bodies using a scalpel. […] Bright-field images were captured on an Olympus IX81 inverted microscope using a Soft Imaging Systems F-View camera linked to a PC running the Analysis software. Images of the same field of neurites were captured just after or at regular intervals up to 48-72 hours after cut injuries.
This experiment was performed in an analogous manner to that described in Examples 2 and 3, however the neurites, instead of being separated by the cell body with a cut, were treated with the neurotoxic chemotherapy drug vincristine. […] The distal part of the neurites was imaged immediately and at 24, 48 and 72 hours after adding the drugs.

In data set [2] the test system is intracellular NAD(P)^+ levels in SCG cultures. As to the kind of experiment: NAD(P)+ levels in SCG explant cultures. The settings on record: 100 nM FK866 for 8 h or 24 h; FIG. 2. The method, then:
as §1
At this time, the explants were collected in 100 μl H2O for NAD(P)^+ determination as described in Billington et al. (2008) J Biol Chem 283(10), 6367-6374.
The results of this analysis can be seen in FIG. 2. […] Therefore, the reduced intracellular levels of NMN^+ result in a reduction in the turnover of NMN^+ to NAD^+ by isoforms of Nmnat.

For data set [3], the system named is cut neurites of SCG neurons. Nature of the data set: Cut neurites of SCG explant cultures (Wallerian degeneration). As to the method:
as §1, with “injuries. […] In this experiment, SCG neurons were cultured for 7 days as described in the methodology, then the neurites were separated from the cell bodies by a scalpel, and the distal part of the neurites with respect to the cut was imaged immediately after the cut or 24 hours after the cut.” for “injuries.”

Consider `CC[C@]1(O)C[C@H]2CN(CCc3c([nH]c4ccccc34)[C@@](C(=O)OC)(c3cc4c(cc3OC)N(C=O)[C@H]3[C@@](O)(C(=O)OC)[C@H](OC(C)=O)[C@]5(CC)C=CCN6CC[C@]43[C@@H]65)C2)C1` [Vincristine, vincristine], for which the “toxic effect on neurites” value in data set [1] (0.02 μM vincristine alone) was “progressive distal-to-proximal degeneration of neurites”.
For the compound `O=C(/C=C/c1cccnc1)NCCCCC1CCN(C(=O)c2ccccc2)CC1` [FK866, N-[4-(1-benzoyl-4-piperidinyl)butyl]-3-(3-pyridinyl)-2E-propenamide], the “effect on NAD^+ levels” value in data set [2] is “depletion of NAD^+”. In data set [1] (0.02 μM vincristine plus 100 nM FK866, up to 72 hours, FIG. 5), the “effect on vincristine-induced neurite degeneration” value is “protection”. In addition, the neurite survival increase entry in data set [3] (FK866 100 nM, cut neurites, estimated) is on record as “increased by four fold”. For the same compound, in data set [3] (FK866 100 nM, imaged 24 hours after cut, FIG. 3), the “effect on injured (cut) neurites” value is listed as “preserving injured neurites in primary culture even if added shortly after cutting”. Besides, the “neuroprotective effect on cell bodies” value in data set [3] (data not shown) is recorded as “does not extend to cell bodies”.
With `NC(=O)c1ccc[n+]([C@@H]2O[C@H](COP(=O)([O-])O)[C@@H](O)[C@H]2O)c1` [NMN, nicotinamide mononucleotide], in data set [1] (0.02 μM vincristine plus 100 nM FK866 and 1 mM NMN, FIG. 5), the “effect of adding NMN with FK866 on vincristine-treated neurites” value was “protective effect is reverted”. Moreover, in data set [3] (NMN^+ in combination with FK866, FIG. 4), the “effect of adding NMN^+ with FK866 on cut neurites” value is “reverts the protective effect of FK866”.
